{
  "source": "patent US20260060250A1",
  "about": "“HERBICIDAL PYRIDONE DERIVATIVES” (SYNGENTA CROP PROTECTION AG, priority 2022, published 2026)",
  "type_in_all_cases": "in vivo",
  "key": {"[1]": {"test_system": "Amaranthus palmeri (AMAPA)", "test": "Pre-emergence Test (Table B1)", "details": "1000 g/ha, evaluated after 13 days"}, "Setaria faberi (SETFA) [2]": {"test_system": "Setaria faberi (SETFA)", "test": "Pre-emergence Test (Table B1)", "details": "1000 g/ha, evaluated after 13 days"}, "[3]": {"test_system": "Echinochloa crus-galli (ECHCG)", "test": "Pre-emergence Test (Table B1)", "details": "1000 g/ha, evaluated after 13 days"}, "[4]": {"test_system": "Amaranthus retroflexus (AMARE)", "test": "Pre-emergence Test (Table B1)", "details": "1000 g/ha, evaluated after 13 days"}, "Zea mays (ZEAMX) [5]": {"test_system": "Zea mays (ZEAMX)", "test": "Pre-emergence Test (Table B1)", "parameters": "key: 5=81-100%; 4=61-80%; 3=41-60%; 2=21-40%; 1=0-20%; 0=inactive", "details": "1000 g/ha, evaluated after 13 days"}, "[6]": {"test_system": "Ipomoea hederacea (IPOHE)", "test": "Pre-emergence Test (Table B1)", "details": "1000 g/ha, evaluated after 13 days"}, "[7]": {"test_system": "Amaranthus palmeri (AMAPA)", "test": "Post-emergence Test (Table B2)", "details": "evaluated after 13 days", "description": "(§1) Seeds of a variety of test species are sown in standard soil in pots (Amaranthus palmeri (AMAPA), Setaria faberi (SETFA), Echinochloa crus-galli (ECHCG), (Amaranthus retroflexus (AMARE), Zea mays (ZEAMX), Ipomoea hederacea (IPOHE)). After 8 days cultivation under controlled conditions in a glasshouse (at 24° C./16° C., day/night; 14 hours light; 65% humidity), the plants are sprayed with an aqueous spray solution derived from the formulation of the technical active ingredient in acetone/water (50:50) solution containing 0.5% Tween 20 (polyoxyethelyene sorbitan monolaurate, CAS RN 9005-64-5). Compounds are applied at 1000 g/ha unless otherwise stated. The test plants are then grown in a glasshouse under controlled conditions in a glasshouse (at 24° C./16° C., day/night; 14 hours light; 65% humidity) and watered twice daily. After 13 days the test is evaluated for the percentage damage caused to the plant."}, "[8]": {"test_system": "Amaranthus retroflexus (AMARE)", "test": "Post-emergence Test (Table B2)", "details": "evaluated after 13 days", "description": "as §1"}, "Setaria faberi (SETFA) [9]": {"test_system": "Setaria faberi (SETFA)", "test": "Post-emergence Test (Table B2)", "details": "evaluated after 13 days", "description": "as §1"}, "[10]": {"test_system": "Echinochloa crus-galli (ECHCG)", "test": "Post-emergence Test (Table B2)", "parameters": "key: 5=81-100%; 4=61-80%; 3=41-60%; 2=21-40%; 1=0-20%; 0=inactive", "details": "evaluated after 13 days", "description": "as §1"}, "[11]": {"test_system": "Ipomoea hederacea (IPOHE)", "test": "Post-emergence Test (Table B2)", "parameters": "key: 5=81-100%; 4=61-80%; 3=41-60%; 2=21-40%; 1=0-20%; 0=inactive", "details": "evaluated after 13 days", "description": "as §1"}, "Zea mays (ZEAMX) [12]": {"test_system": "Zea mays (ZEAMX)", "test": "Post-emergence Test (Table B2)", "parameters": "key: 5=81-100%; 4=61-80%; 3=41-60%; 2=21-40%; 1=0-20%; 0=inactive", "details": "evaluated after 13 days", "description": "as §1"}, "[13]": {"details": "lower rate of 250 g per hectare"}},
  "data": [
    {"compound": "C=CC(C)OC(=O)c1cc(-c2c(C)n(CC)c(-c3ccc(Cl)c(Cl)c3)c(C(=O)O)c2=O)c(F)cc1Cl", "note": "(centres unmarked) [Compound 21, 5-[4-chloro-2-fluoro-5-(1-methylallyloxycarbonyl)phenyl]-2-(3,4-dichlorophenyl)-1-ethyl-6-methyl-4-oxo-pyridine-3-carboxylic acid]", "values": [
      {"measurement": "percentage damage caused to the plant, AMAPA", "setting": "[1]", "result": "5 (5=81-100%)"},
      {"measurement": "percentage damage caused to the plant, SETFA", "setting": "Setaria faberi (SETFA) [2]", "result": "2 (2=21-40%)"},
      {"measurement": "percentage damage caused to the plant, ECHCG", "setting": "[3]", "result": "4 (4=61-80%)"},
      {"measurement": "percentage damage caused to the plant, AMARE", "setting": "[4]", "result": "5 (5=81-100%)"},
      {"measurement": "percentage damage caused to the plant, ZEAMX", "setting": "Zea mays (ZEAMX) [5]", "result": 0},
      {"measurement": "percentage damage caused to the plant, IPOHE", "setting": "[6]", "result": "3 (3=41-60%)"},
      {"measurement": "percentage damage caused to the plant, AMAPA", "setting": "[7]; 1000 g/ha", "result": "5 (5=81-100%)"},
      {"measurement": "percentage damage caused to the plant, AMARE", "setting": "[8]; 1000 g/ha", "result": "5 (5=81-100%)"},
      {"measurement": "percentage damage caused to the plant, SETFA", "setting": "Setaria faberi (SETFA) [9]; 1000 g/ha", "result": "3 (3=41-60%)"},
      {"measurement": "percentage damage caused to the plant, ECHCG", "setting": "[10]; 1000 g/ha", "result": "4 (4=61-80%)"},
      {"measurement": "percentage damage caused to the plant, IPOHE", "setting": "[11]; 1000 g/ha", "result": "3 (3=41-60%)"},
      {"measurement": "percentage damage caused to the plant, ZEAMX", "setting": "Zea mays (ZEAMX) [12]; 1000 g/ha", "result": "2 (2=21-40%)"}
    ]},
    {"compound": "C=CC(C)OC(=O)c1ccc(F)c(-c2c(C)n(CC)c(-c3ccc(Cl)c(Cl)c3)c(C(=O)O)c2=O)c1", "note": "(centres unmarked) [Compound 5, 2-(3,4-dichlorophenyl)-1-ethyl-5-[2-fluoro-5-(1-methylallyloxycarbonyl)phenyl]-6-methyl-4-oxo-pyridine-3-carboxylic acid]", "values": [
      {"measurement": "percentage damage caused to the plant, AMAPA", "setting": "[7]; [13]", "result": "3 (3=41-60%)"},
      {"measurement": "percentage damage caused to the plant, AMARE", "setting": "[8]; [13]", "result": "2 (2=21-40%)"},
      {"measurement": "percentage damage caused to the plant, SETFA", "setting": "Setaria faberi (SETFA) [9]; [13]", "result": "1 (1=0-20%)"},
      {"measurement": "percentage damage caused to the plant, ECHCG", "setting": "[10]; [13]", "result": 0},
      {"measurement": "percentage damage caused to the plant, IPOHE", "setting": "[11]; [13]", "result": "1 (1=0-20%)"},
      {"measurement": "percentage damage caused to the plant, ZEAMX", "setting": "Zea mays (ZEAMX) [12]; [13]", "result": "2 (2=21-40%)"}
    ]},
    {"compound": "CCn1c(C)c(-c2cc(C(=O)OC(C)C3CCCC3)ccc2F)c(=O)c(C(=O)O)c1-c1ccc(Cl)c(Cl)c1", "note": "(centres unmarked) [Compound 16, 5-[5-(1-cyclopentylethoxycarbonyl)-2-fluoro-phenyl]-2-(3,4-dichlorophenyl)-1-ethyl-6-methyl-4-oxo-pyridine-3-carboxylic acid]", "values": [
      {"measurement": "percentage damage caused to the plant, AMAPA", "setting": "[7]; 1000 g/ha", "result": "4 (4=61-80%)"},
      {"measurement": "percentage damage caused to the plant, AMARE", "setting": "[8]; 1000 g/ha", "result": "5 (5=81-100%)"},
      {"measurement": "percentage damage caused to the plant, SETFA", "setting": "Setaria faberi (SETFA) [9]; 1000 g/ha", "result": "1 (1=0-20%)"},
      {"measurement": "percentage damage caused to the plant, ECHCG", "setting": "[10]; 1000 g/ha", "result": 0},
      {"measurement": "percentage damage caused to the plant, IPOHE", "setting": "[11]; 1000 g/ha", "result": 0},
      {"measurement": "percentage damage caused to the plant, ZEAMX", "setting": "Zea mays (ZEAMX) [12]; 1000 g/ha", "result": "1 (1=0-20%)"}
    ]},
    {"compound": "C#CCC(C)OC(=O)c1ccc(F)c(-c2c(C)n(CC)c(-c3ccc(Cl)c(Cl)c3)c(C(=O)O)c2=O)c1", "note": "(centres unmarked) [Compound 17, 2-(3,4-dichlorophenyl)-1-ethyl-5-[2-fluoro-5-(1-methylbut-3-ynoxycarbonyl)phenyl]-6-methyl-4-oxo-pyridine-3-carboxylic acid]", "values": [
      {"measurement": "percentage damage caused to the plant, AMAPA", "setting": "[1]", "result": "5 (5=81-100%)"},
      {"measurement": "percentage damage caused to the plant, SETFA", "setting": "Setaria faberi (SETFA) [2]", "result": "2 (2=21-40%)"},
      {"measurement": "percentage damage caused to the plant, ECHCG", "setting": "[3]", "result": "1 (1=0-20%)"},
      {"measurement": "percentage damage caused to the plant, AMARE", "setting": "[4]", "result": "5 (5=81-100%)"},
      {"measurement": "percentage damage caused to the plant, ZEAMX", "setting": "Zea mays (ZEAMX) [5]", "result": "1 (1=0-20%)"},
      {"measurement": "percentage damage caused to the plant, IPOHE", "setting": "[6]", "result": "2 (2=21-40%)"},
      {"measurement": "percentage damage caused to the plant, AMAPA", "setting": "[7]; 1000 g/ha", "result": "5 (5=81-100%)"},
      {"measurement": "percentage damage caused to the plant, AMARE", "setting": "[8]; 1000 g/ha", "result": "5 (5=81-100%)"},
      {"measurement": "percentage damage caused to the plant, SETFA", "setting": "Setaria faberi (SETFA) [9]; 1000 g/ha", "result": "2 (2=21-40%)"},
      {"measurement": "percentage damage caused to the plant, ECHCG", "setting": "[10]; 1000 g/ha", "result": "2 (2=21-40%)"},
      {"measurement": "percentage damage caused to the plant, ZEAMX", "setting": "Zea mays (ZEAMX) [12]; 1000 g/ha", "result": "1 (1=0-20%)"}
    ]},
    {"compound": "CCn1c(C)c(-c2cc(C(=O)OC(C)CN(C)C)ccc2F)c(=O)c(C(=O)O)c1-c1ccc(Cl)c(Cl)c1", "note": "(centres unmarked) [Compound 6, 2-(3,4-dichlorophenyl)-5-[5-[2-(dimethylamino)-1-methyl-ethoxy]carbonyl-2-fluoro-phenyl]-1-ethyl-6-methyl-4-oxo-pyridine-3-carboxylic acid]", "values": [
      {"measurement": "percentage damage caused to the plant, AMAPA", "setting": "[7]; 1000 g/ha", "result": "4 (4=61-80%)"},
      {"measurement": "percentage damage caused to the plant, AMARE", "setting": "[8]; 1000 g/ha", "result": "3 (3=41-60%)"},
      {"measurement": "percentage damage caused to the plant, SETFA", "setting": "Setaria faberi (SETFA) [9]; 1000 g/ha", "result": "1 (1=0-20%)"},
      {"measurement": "percentage damage caused to the plant, ECHCG", "setting": "[10]; 1000 g/ha", "result": "1 (1=0-20%)"},
      {"measurement": "percentage damage caused to the plant, IPOHE", "setting": "[11]; 1000 g/ha", "result": 0},
      {"measurement": "percentage damage caused to the plant, ZEAMX", "setting": "Zea mays (ZEAMX) [12]; 1000 g/ha", "result": "1 (1=0-20%)"}
    ]}
  ]
}
